Reference: BindingDB's records for patent US20240376097 (Beigene, 2024)
Where “and” joins values, the source holds several entries; their conditions need not be identical. Identical values can stand only once.

biological target: Apoptosis regulator Bcl-2 (Homo sapiens, UniProt P10415); test: Bcl-2 TR-FRET Assay
Description: Compounds disclosed herein were tested for blocking of Bcl-2 protein with its ligand in an assay based on Time-Resolved Fluorescence Resonance Energy Transfer (TR-FRET) methodology. Recombinant human 0.05 nM Bcl-2 protein was pre-incubated with a serial dilution of compounds disclosed herein (top final concentration is 1 uM or 0.1 uM or 0.02 uM or 0.01 uM, 10 points) at room temperature for 0.5 hour in an assay buffer containing 20 mM potassium phosphate buffer, pH 7.5, 50 mM NaCl. 1 mM EDTA, 0.05% Tween-20, 0.01% BSA. Then the FITC labeled Bak peptide Ac-GQVGRQLAIIGDK(FITC)INR-amide (0.5 nM) and MAb Anti 6His Tb cryptate Gold were added to plate and further incubated at room temperature for 1 hour. The TR-FRET signals (337 nm-520 nm-490 nm) were read on BMG PHERAstar FSX instrument. The inhibition percentage of Bcl-2 interaction with its ligand in presence of increasing concentrations of compounds was calculated based on the TR-FRET signals.

Apoptosis regulator Bcl-2, sequence (P10415 whole entry): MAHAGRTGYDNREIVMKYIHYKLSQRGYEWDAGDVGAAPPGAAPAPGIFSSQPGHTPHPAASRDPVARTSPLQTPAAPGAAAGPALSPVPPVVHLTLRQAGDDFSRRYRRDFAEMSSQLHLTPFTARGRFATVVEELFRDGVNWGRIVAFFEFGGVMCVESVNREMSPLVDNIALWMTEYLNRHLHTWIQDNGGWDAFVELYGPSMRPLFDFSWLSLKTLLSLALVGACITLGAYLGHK

| Compound | IC50 |
| --- | --- |
| CC(C)c1ccccc1C1CN(CC(C)(C)C)CCN1C1CC2(CCN(c3ccc(C(=O)NS(=O)(=O)c4ccc(NC[C@H]5CC[C@](C)(O)CC5)c([N+](=O)[O-])c4)c(Oc4cnc5[nH]ccc5c4)c3)CC2)C1 (some centres undefined) [US20240376097, Example 12] | 0.73 nM |
| COCCN1CCN(C2CC3(CCN(c4ccc(C(=O)NS(=O)(=O)c5ccc(NC[C@H]6CC[C@](C)(O)CC6)c([N+](=O)[O-])c5)c(Oc5cnc6[nH]ccc6c5)c4)CC3)C2)C(c2ccccc2C(C)C)C1 (some centres undefined) [US20240376097, Example 13] | 0.011 nM |
| COc1ccc(CN2CCN(C3CC4(CCN(c5ccc(C(=O)NS(=O)(=O)c6ccc(NC[C@H]7CC[C@](C)(O)CC7)c([N+](=O)[O-])c6)c(Oc6cnc7[nH]ccc7c6)c5)CC4)C3)C(c3ccccc3C(C)C)C2)cc1 (some centres undefined) [US20240376097, Example 19] | 0.086 nM |
| COc1cc(CN2CCN(C3CC4(CCN(c5ccc(C(=O)NS(=O)(=O)c6ccc(NC[C@H]7CC[C@](C)(O)CC7)c([N+](=O)[O-])c6)c(Oc6cnc7[nH]ccc7c6)c5)CC4)C3)C(c3ccccc3C(C)C)C2)cc(OC)c1 (some centres undefined) [US20240376097, Example 49] | 0.2 nM |
| COc1cc(CN2CCN(C3CC4(CCN(c5ccc(C(=O)NS(=O)(=O)c6ccc(NC[C@H]7CC[C@](C)(O)CC7)c([N+](=O)[O-])c6)c(Oc6cnc7[nH]ccc7c6)c5)CC4)C3)C(c3ccccc3C(C)C)C2)cc(C(F)(F)F)c1OC (some centres undefined) [US20240376097, Example 179] | 1.5 nM |
| COc1cc(CN2CCN(C3CC4(CCN(c5ccc(C(=O)NS(=O)(=O)c6ccc(NC[C@H]7CC[C@](C)(O)CC7)c([N+](=O)[O-])c6)c(Oc6cnc7[nH]cc(F)c7c6)c5)CC4)C3)[C@H](c3ccccc3C(C)C)C2)cc(C)c1OC [US20240376097, Example 210] | 0.33 nM |
| COc1cc(CN2CCN(C3CC4(CCN(c5ccc(C(=O)NS(=O)(=O)c6ccc(NC[C@H]7CC[C@](C)(O)CC7)c([N+](=O)[O-])c6)c(Oc6cnc7[nH]ccc7c6)c5)CC4)C3)[C@H](c3ccccc3C(C)C)C2)ccc1Cl [US20240376097, Example 276] | 0.48 nM |
| COc1cc(CN2CCN(C3CC4(CCN(c5ccc(C(=O)NS(=O)(=O)c6ccc(NC[C@H]7CC[C@](C)(O)CC7)c([N+](=O)[O-])c6)c(Oc6cnc7[nH]cc(F)c7c6)c5)CC4)C3)[C@H](c3ccccc3C(C)C)C2)ccc1Cl [US20240376097, Example 278] | 0.6 nM |
| CC(C)c1ccccc1[C@@H]1CN(Cc2ccc(OC3CC3)c(OC3CC3)c2)CCN1C1CC2(C1)CN(c1ccc(C(=O)NS(=O)(=O)c3ccc(NC[C@H]4CC[C@](C)(O)CC4)c([N+](=O)[O-])c3)c(Oc3cnc4[nH]cc(F)c4c3)c1)C2 [US20240376097, Example 363] | 0.34 nM and 0.4 nM |
